Assay results reported in patent publication US4868195A, “Novel enolamides, pharmaceutical compositions and methods of use thereof for activity as modulators of the arachidonic acid cascade” (Warner-Lambert Company, priority 1988, dated 1989).
“And” between values parts separate entries of the source, which are not always exact repeats. Equal values may be shown once.

Each compound was assayed against T1, human leukocyte 5-lipoxygenase (Homo sapiens, UniProt P09917) (assay: 5-lipoxygenase inhibition in human leukocytes, 5-HETE formation (5LOA; methods 5LOA1 and 5LOA2)). Settings: 5-HETE formation, human leukocytes; read-out: Concentration (M) for 50.0 % Inhibition, IC (5LOA).
T1 construct: endogenous in cells; host or cells: intact leukocytes isolated from human blood
T1 sequence (P09917 1-674): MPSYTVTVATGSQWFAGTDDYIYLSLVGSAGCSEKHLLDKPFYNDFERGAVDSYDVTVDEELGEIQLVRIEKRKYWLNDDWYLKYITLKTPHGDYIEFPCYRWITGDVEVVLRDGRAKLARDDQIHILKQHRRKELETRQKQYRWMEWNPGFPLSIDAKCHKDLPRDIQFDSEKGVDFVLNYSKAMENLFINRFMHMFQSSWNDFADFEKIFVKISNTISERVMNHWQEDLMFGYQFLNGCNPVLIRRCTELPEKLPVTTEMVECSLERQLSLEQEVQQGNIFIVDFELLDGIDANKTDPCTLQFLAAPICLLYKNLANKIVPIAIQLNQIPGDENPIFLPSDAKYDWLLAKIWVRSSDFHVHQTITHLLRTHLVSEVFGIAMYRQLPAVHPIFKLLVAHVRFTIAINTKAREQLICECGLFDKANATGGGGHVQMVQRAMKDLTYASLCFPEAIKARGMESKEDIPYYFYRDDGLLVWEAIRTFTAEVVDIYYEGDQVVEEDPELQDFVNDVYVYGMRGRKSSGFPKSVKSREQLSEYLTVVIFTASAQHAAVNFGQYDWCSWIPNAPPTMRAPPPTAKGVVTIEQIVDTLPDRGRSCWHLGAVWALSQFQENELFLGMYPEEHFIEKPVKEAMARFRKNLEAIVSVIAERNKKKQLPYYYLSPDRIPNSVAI
Type: cell-based
Text: To Evaluate the Effect of Each Compounds as a 5-Lipoxygenase Inhibitor in Comparison to Standard Reference Agents in Human Leukocytes (5LOA1)
The purpose of this assay is to evaluate the activity of each compound as an inhibitor of human leukocyte 5-lipoxygenase.
Arachidonic acid and calcium ionophore A23187 are obtained from Sigma (St. Louis, MO). Silica gel plates, GF are obtained from Analtech (Newark, DE). Arachidonic acid, (1-^14 C) and 5-HETE (^3 H), 5 (S)-hydroxy-6-trans,8,11,14-cis eicosatetraenoic acid, are obtained from New England Nuclear (Boston, MA). Six percent Dextran-70 in 0.9% NaCl is obtained from Cutter Labs (Berkeley, CA).
Preparation of Leukocytes
Fresh blood from normal adult men who had not received any drugs for at least the previous five days is obtained by the Community Research Clinic (WL/PD) using venipuncture and collected into heparinized vacuotainer tubes. To every 100 ml of pooled blood is added 25 ml of dextran solution (6% dextran -70 in 0.9% sodium chloride containing 3% dextrose) and this is mixed gently in a plastic cylinder. The mixture is left to stand at room temperature for at least 90 minutes. The upper layer which is rich in leukocytes and platelets is then carefully decanted into 50 ml plastic tubes and centrifuged at about 100×g for eight minutes in an IEC centrifuge and rotor number 269 (about 600 rpm). The supernatant fluid is discarded and the pellet is resuspended in 10 ml of 0.87% ammonium chloride for exactly two minutes. This procedure is to lyse completely contaminating red blood cells. Leukocytes are then separated by centrifugation for ten minutes. The pellet is washed three times by suspension in 20 ml PBS (sodium chloride, 7.1 g; Na2 HPO4, 1.15 g; KH2 PO4, 0.2 g, and KCl, 0.2 g/L) and centrifuged as before. The final pellet is suspended in PBS containing 0.87 mM CaCl2. Viability of the cells is then checked using trypan blue exclusion method and is found to be over 90%.
5-Lipoxygenase Enzyme Assay
Leukocyte cells in suspension (0.98 ml) are incubated with or without test compounds for five minutes at 37° C. in a shaking water bath. At this time a 17 μl mixture is prepared per 1 ml of cell suspension: 100 mM arachidonic acid, 1 μl, 0.05 μCi ^14 C-arachidonic acid in 5 μl; 1 mM calcium ionophore A23187, 10 μl (1). This mixture is added and the incubation continued for five minutes. The reaction is stopped by adding four volumes of absolute ethanol and the mixture is kept in ice for 30 minutes. The floculated precipitate is separated by centrifugation at about 37,000×g for 20 minutes (Beckman Instruments rotor number 40). The alcohol extract is taken to dryness under a stream of nitrogen and the residue is dissolved in 100-200 μl absolute ethanol. At the time any turbidity is removed by centrifugation. An aliquot (25-50 μl) is applied onto 20×20 cm silica gel TLC plate and developed using the following solvent system: diethyl ether, petroleum ether (2040° C.), acetic acid (50:50:1 v/v). Zones of 1 cm apart are scraped from the TLC plate and transferred to mini-vials. Methanol (0.5 ml) is added to dissolve the radioactivity adsorbed to the silica gel and scintillation fluid (H. P., Beckman), 5 ml is then added and vials are counted in a liquid scintillation counter. A sample of ^3 H-5-HETE is applied and used for the identification of the formed 5-HETE.
Total radioactivity in the test as well as the control samples are normalized and the amount of 5-HETE present is calculated accordingly.
IC50 values are defined as the concentrations of test agents which caused a 50% inhibition of the formation of 5-HETE as compared to control and are determined by inspection of the concentration-response curves.
5-Lipoxygenase Assay Using Isolated Human Leukocytes (5LOA2)
The formation of 5-HETE in human leukocytes is considered a measure of 5-lipoxygenase activity. The protocol is described in the following. […]

Row | Structure (SMILES) | IC50
1 | O=C(Nc1ccc(CCc2ccccc2)cc1)C1CS(=O)(=O)c2ccccc2C1=O (centres unmarked) [Example 16, 3,4-Dihydro-4-oxo-N-[(4-(2-phenyl)ethyl]-phenyl]-2H-1-benzothiopyran-3-carboxamide, 1,1-dioxide] | 1.77e-05 M
2 | COc1ccc(CCc2ccc(NC(=O)C3=C(O)c4ccccc4S(=O)(=O)C3)cc2)cc1OC [Example 18, N-[4-[2-(3,4-Dimethoxyphenyl)ethyl]phenyl]-4-hydroxy-2H-1-benzothiopyran-3-carboxamide, 1,1-dioxide] | 1.35e-05 M
3 | COc1ccc(CCc2ccc(NC(=O)C3CS(=O)(=O)c4ccccc4C3=O)cc2)cc1O (centres unmarked) [Example 27, 3,4-Dihydro-N-[4-[2-(3-hydroxy-4-methoxyphenyl)ethyl]phenyl]-4-oxo-2H-1-benzothiopyran-3-carboxamide, 1,1-dioxide] | 1.8e-05 M
4 | O=C(Nc1ccc(CCc2ccc(-c3ccccc3)cc2)cc1)C1CS(=O)(=O)c2ccccc2C1=O (centres unmarked) [Example 46, N-[4-[2-([1,1'-biphenyl]-4-yl)ethyl]phenyl]-3,4-dihydro-4-oxo-2H-1-benzothiopyran-3-carboxamide, 1,1-dioxide] | 1.1e-05 M
5 | CCCCOc1ccc(CCc2ccc(NC(=O)C3CS(=O)(=O)c4ccccc4C3=O)cc2)cc1 (centres unmarked) [Example 48] | 1.59e-05 M and 1.91e-05 M
6 | O=C(Nc1ccc(CCc2c(F)c(F)c(F)c(F)c2F)cc1)C1=C(O)c2ccccc2S(=O)(=O)C1 [Example 64, N-[4-[2-(2,3,4,5,6-Pentafluorophenyl)ethyl]phenyl]-4-hydroxy-2H-1-benzothiopyran-3-carboxamide, 1,1-dioxide] | 1.19e-05 M
7 | O=C(Nc1ccc(C=Cc2ccc([N+](=O)[O-])cc2)cc1)C1CS(=O)(=O)c2ccccc2C1=O (centres unmarked) [Example 67, 2H-1-Benzothiopyran-3-carboxamide, 3,4-dihydro-N-[4-[2-(4-nitrophenyl)ethenyl]phenyl]-4-oxo-, 1,1-dixide] | 1.17e-05 M
8 | O=C(Nc1ccc(CCc2cccc3ccccc23)cc1)C1=C(O)c2ccccc2S(=O)(=O)C1 [Example 73, 2H-1-Benzothiopyran-3-carboxamide, 4-hydroxy-N-[4-[2-(1-naphthalenyl)ethyl]phenyl], 1,1-dioxide] | 4.09e-06 M and 8.2e-06 M
9 | O=C(Nc1cccc(CCc2ccc(Cl)c(Cl)c2)c1)C1=C(O)c2ccccc2S(=O)(=O)C1 [Example 76, 2H-1-Benzothiopyran-3-carboxamide, N-[3-[2-(3,4-dichlorophenyl)ethyl]phenyl]-4-hydroxy-, 1,1-dioxide] | 1.1e-05 M
10 | O=C(Nc1ccc(Cc2ccc(Cl)c(Cl)c2)cc1)C1=C(O)c2ccccc2S(=O)(=O)C1 [Example 78, 2H-1-Benzothiopyran-3-carboxamide, N-[4-[(3,4-dichlorophenyl)methyl]phenyl]-4-hydroxy-, 1,1-dioxide] | 1.06e-05 M
11 | O=C(Nc1ccccc1CCCc1ccc(Cl)c(Cl)c1)C1=C(O)c2ccccc2S(=O)(=O)C1 [Example 80, 2H-1-Benzothiopyran-3-carboxamide, N-[2-[3-(3,4-dichlorophenyl)propyl]phenyl]-4-hydroxy-, 1,1-dioxide] | 1.01e-05 M

Other lines, results leading:

Row | IC50 | Structure (SMILES)
12 | 7e-06 M | COc1ccc(CCc2ccc(NC(=O)C3CS(=O)(=O)c4ccccc4C3=O)cc2)cc1 (centres unmarked) [Example 41]
13 | 2.12e-06 M | O=C(Nc1ccc(CCc2ccc3ccccc3c2)cc1)C1=C(O)c2ccccc2S(=O)(=O)C1 [Example 51, 4-Hydroxy-N-[4-[2-(2-naphthalenyl)ethyl]phenyl]-2H-1-benzothiopyran-3-carboxamide, 1,1-dioxide]
14 | 3.8e-06 M | Cc1ccc(CCc2ccc(NC(=O)C3CS(=O)(=O)c4ccccc4C3=O)cc2)cc1C (centres unmarked) [Example 53, N-[4-[2-(3,4-Dimethylphenyl)ethyl]phenyl]-3,4-dihydro-4-oxo-2H-1-benzothiopyran-3-carboxamide, 1,1-dioxide]
15 | 5.25e-06 M | O=C(Nc1ccc(CCc2ccc(Cl)cc2)cc1)C1CS(=O)(=O)c2ccccc2C1=O (centres unmarked) [Example 54, N-[4-[2-(4-Chlorophenyl)ethyl]phenyl]-3,4-dihydro-4-oxo-2H-1-benzothiopyran-3-carboxamide, 1,1-dioxide]
16 | 9.3e-06 M | O=C(Nc1ccc(C=Cc2ccc(Cl)c(Cl)c2)cc1)C1=C(O)c2ccccc2S(=O)(=O)C1 [Example 74, 2H-1-Benzothiopyran-3-carboxamide, N-[4-[2-(3,4-dichlorophenyl)ethenyl]phenyl]-4-hydroxy-, 1,1-dioxide]
17 | 9.2e-06 M | O=C(Nc1ccc(CCCc2ccc(Cl)c(Cl)c2)cc1)C1=C(O)c2ccccc2S(=O)(=O)C1 [Example 79, 2H-1-Benzothiopyran-3-carboxamide, N-[4-[3-(3,4-dichlorphenyl)propyl]phenyl]-4-hydroxy-, 1,1-dioxide]
18 | 6e-06 M | COc1cc(CCc2ccc(NC(=O)C(=O)c3sc4ccccc4c3O)cc2)ccc1O [Example 142, Benzo[b]thiophene-2-acetamide, 3-hydroxy-N-[4-[2-(4-hydroxy-3-methoxyphenyl)ethyl]phenyl]-α-oxo-]
19 | 5.22e-06 M | COc1ccc(CCc2ccc(NC(=O)c3sc4ccccc4c3O)cc2)cc1OC [Example 143, Benzo[b]thiophene-2-carboxamide, N-[4-[2-(3,4-dimethoxphenyl)ethyl]phenyl]-3-hydroxy]
20 | 3.96e-06 M | O=C(Nc1cccc(CCc2ccc(Cl)c(Cl)c2)c1)c1sc2ccccc2c1O [Example 146, Benzo[b]thiophene-2-carboxamide, N-[3-[2-(3,4-dichlorophenyl)ethyl]phenyl]-3-hydroxy]

Same assay, conditions: Concentration 1.00 E -5 M

Row | % Inhibition (5LOA) | Structure (SMILES)
21 | 25.2% | CCCCCCCCCCc1ccc(NC(=O)C2CS(=O)(=O)c3ccccc3C2=O)cc1 (centres unmarked) [Example 60, N-(4-Decylphenyl)-3,4-dihydro-4-oxo-2H-1-benzoothiopyran-3-carboxamide, 1,1-dioxide]

Same assay, conditions: Concentration 2.00 E -5 M

Row | % Inhibition (5LOA) | Structure (SMILES)
22 | 21.7% | CCCCCCCCCCc1ccc(NC(=O)C2CS(=O)(=O)c3ccccc3C2=O)cc1 (centres unmarked) [Example 60, N-(4-Decylphenyl)-3,4-dihydro-4-oxo-2H-1-benzoothiopyran-3-carboxamide, 1,1-dioxide]

Same assay, conditions: Concentration 5.00 E -6 M

Row | % Inhibition (5LOA) | Structure (SMILES)
23 | 7.9% | CCCCCCCCCCc1ccc(NC(=O)C2CS(=O)(=O)c3ccccc3C2=O)cc1 (centres unmarked) [Example 60, N-(4-Decylphenyl)-3,4-dihydro-4-oxo-2H-1-benzoothiopyran-3-carboxamide, 1,1-dioxide]
